Experimental data published in patent EP0155825A2, “Novel choline derivatives” (NITTO BOSEKI CO., LTD., priority 1984, dated 1985).

Test: Stability against non-enzymatic hydrolysis in buffer
Format: physicochemical
Settings: 1/15 molar phosphate buffer (pH 8.20) at 37°C for 90 minutes

With `C[N+](C)(C)CCOC(=O)c1ccc(O)c(O)c1.[I-]` [DHBCI, 3,4-dihydroxybenzoylcholine iodide] the non-enzymatic hydrolysis was “substantially no hydrolysis”.
